Source: PubChem BioAssay (NCI)
“And” between values parts separate entries of the source, which are not always exact repeats. Equal values may be shown once.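 Values below derive from 48-hour exposures of cells grown in 96-well plates, with endpoints linearly interpolated between the two concentrations bracketing the appropriate inhibition level. GI50: concentration for 50% inhibition of growth. TGI denotes the concentration required for complete inhibition of growth.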

Columns and labels:
Test in all cases: NCI tumour cell line growth inhibition, 48 h
HOP-62 NSCLC = system: HOP-62 NSCLC
M14 melanoma = system: M14 melanoma
MDA-MB-435 = system: MDA-MB-435
OVCAR-4 ovarian = system: OVCAR-4 ovarian
PC-3 prostate = system: PC-3 prostate
RXF 393 renal = system: RXF 393 renal
SF-539 CNS = system: SF-539 CNS
SK-MEL-2 melanoma = system: SK-MEL-2 melanoma
SNB-75 CNS = system: SNB-75 CNS
TK-10 renal = system: TK-10 renal

Row | Structure (SMILES) | GI50 (HOP-62 NSCLC) | TGI (HOP-62 NSCLC) | GI50 (M14 melanoma) | TGI (M14 melanoma) | GI50 (MDA-MB-435) | TGI (MDA-MB-435) [µM] | GI50 (OVCAR-4 ovarian) | TGI (OVCAR-4 ovarian) [µM] | GI50 (PC-3 prostate) | TGI (PC-3 prostate) [µM] | GI50 (RXF 393 renal) | TGI (RXF 393 renal) | GI50 (SF-539 CNS) | TGI (SF-539 CNS) | GI50 (SK-MEL-2 melanoma) | TGI (SK-MEL-2 melanoma) | GI50 (SNB-75 CNS) | TGI (SNB-75 CNS) [µM] | GI50 (TK-10 renal) | TGI (TK-10 renal) [µM]
1 | CC(C)c1c(C(=O)Nc2ccccc2)c(-c2ccccc2)c(-c2ccc(F)cc2)n1CC[C@@H](O)C[C@@H](O)CC(=O)O | 36 µM | > 100 µM | 19.1 µM | > 100 µM | 15.1 µM | > 100 | 27.8 µM | > 100 | 7.31 µM | > 100 | 8.75 µM | 47.2 µM | 25.6 µM | > 100 µM | 2.24 µM | 7.49 µM | 2.09 µM | > 26.5 | 45.5 µM | > 100
2 | O=C1Nc2ccc(I)cc2/C1=C/c1cc(Br)c(O)c(Br)c1 | > 25 µM and 21.9 µM | > 25 µM and 46.9 µM | 10.8 µM and 5.03 µM | > 25 µM and 72.1 µM | 15 µM and 13.2 µM | > 100 | 24.8 µM and 23.3 µM | > 100 | > 17.7 µM and 23.3 µM | > 74.7 | > 16.6 µM and 12 µM | > 25 µM and 28.3 µM | > 20.2 µM and 14.1 µM | > 25 µM and 43.8 µM | 19.6 µM and 14.7 µM | > 25 µM and 37.5 µM | > 25 µM and 22.2 µM | > 90.3 | > 25 µM and 31.1 µM | > 92.3
3 | COc1cccc(-c2cc(-c3ccc(Nc4nc(Nc5ccc(Cl)cc5)nc(Nc5ccc(Cl)cc5)n4)cc3)nc(N)c2C#N)c1 | 21.1 µM | 44.6 µM | 2.5 µM | 7.12 µM | 1.82 µM | 4.24 | 4.09 µM | > 100 | 2.01 µM | 12 | 1.44 µM | 3.68 µM | 1.69 µM | 4.1 µM | 1.74 µM | 3.65 µM | 9.75 µM | 24.6 | 2.21 µM | 4.05
4 | N=C(N)c1ccc(-c2ccc(-c3cccs3)s2)cc1F | 1.61 µM | 3.07 µM | 1.45 µM | 2.97 µM | 1.13 µM | 2.37 | 1.54 µM | 3.85 | 1.48 µM | 3.03 | 1.25 µM | 2.64 µM | 1.35 µM | 3.38 µM | 1.94 µM | 3.65 µM | 1.34 µM | 2.66 | 1.61 µM | 3.03
5 | FC(F)(F)c1ccc(-c2cnc(-c3nn[nH]n3)nc2NC2CCCCCC2)cc1 | > 10 µM | > 10 µM | > 10 µM | > 10 µM | > 10 µM | > 10 | > 10 µM | > 10 | > 10 µM | > 10 | > 10 µM | > 10 µM | > 10 µM | > 10 µM | > 10 µM | > 10 µM | > 10 µM | > 10 | > 10 µM | > 10
6 | Cc1ccc(CNc2ccc(Cl)cc2NCc2ccc(C)c(O)c2)cc1O | 8.85 µM | 16.8 µM | 5.78 µM | 12.6 µM | 6.7 µM | 13.1 | 6.63 µM | 14.4 | 6.33 µM | 13.3 | 7.5 µM | 14.5 µM | 7.31 µM | 14.4 µM | 6.82 µM | 14.5 µM | 5.47 µM | 12.1 | 8.4 µM | 15.5
7 | C/C=C/C(C/C=C(\C)CO[Si](C)(C)C(C)(C)C)O[Si](C)(C)C(C)(C)C (stereo not given) | – | > 100 µM | – | > 100 µM | – | > 100 | – | > 100 | – | > 100 | – | > 100 µM | – | > 100 µM | – | > 100 µM | – | > 100 | – | > 100
8 | Cc1cc(C)c(CNC(=O)c2cc(Cl)c3c(c2C)O[C@@](C)(C2CCC(N(C)C)CC2)O3)c(=O)[nH]1 (stereo not given in full) | > 100 µM | > 100 µM | 33.8 µM | > 100 µM | 58 µM | > 100 | 83.9 µM | > 100 | 69.7 µM | > 100 | 15.9 µM | 71.5 µM | 57.9 µM | > 100 µM | > 100 µM | > 100 µM | 15.2 µM | > 100 | > 100 µM | > 100
9 | Nc1nc(N)c2nc(CNc3ccc(C(=O)NC(CCC(=O)O)C(=O)O)cc3)cnc2n1 (stereo not given) | 0.0408 µM and < 0.01 µM | > 100 µM | < 0.01 µM | > 100 µM | < 0.01 µM | > 100 | – | > 100 | < 0.01 µM | > 100 | – | > 100 µM | 0.0204 µM and < 0.01 µM | > 100 µM | > 100 µM | > 100 µM | – | > 100 | 0.0736 µM | > 100
10 | CC(C)OC(=O)OCOP(=O)(OCOC(=O)OC(C)C)C1CCCN(O)C1=O (stereo not given) | 2.12 µM | > 100 µM | 2.67 µM | > 100 µM | 5.29 µM | > 100 | 2.32 µM | > 100 | 7.55 µM | > 100 | 0.316 µM | 2.88 µM | 5.79 µM | > 100 µM | 3.1 µM | 20.4 µM | 5.46 µM | > 100 | 1.54 µM | > 100
11 | COc1ccc(-c2cc(-c3ccc(Cl)cc3)c(C#N)c(=O)n2CCCCCC(=O)Nc2ccccc2N)cc1 | 3.49 µM | 52.1 µM | 2.44 µM | 6.57 µM | 3.69 µM | 18.7 | 6.48 µM | > 100 | 3.05 µM | 31 | 1.77 µM | 5.68 µM | 9.29 µM | > 100 µM | 4.68 µM | 33.1 µM | 1.4 µM | 5.83 | 28.5 µM | > 100
12 | CCN(CC)CCN1C(=O)c2cccc3cc(N)cc(c23)C1=O | – | 40.3 µM | – | 32.1 µM | – | 22.2 | – | 48.3 | – | > 100 | – | 34.1 µM | – | 20.4 µM | – | 37.6 µM | – | 37.1 | – | > 100
13 | CCn1nc(C#Cc2c(C)ccc3c(Nc4ccc(Cl)cc4)nccc23)c2c(N)ncnc21 | 4.01 µM | 78 µM | 2.89 µM | > 100 µM | 1.08 µM | 4.57 | 6.16 µM | 53.5 | 3.03 µM | > 100 | 2.63 µM | 8.98 µM | – | – | 1.92 µM | 6.53 µM | 3.12 µM | 44 | 6.39 µM | > 100
